Consider one compound from patent publication US20060222706A1 (priority 2005, published 2006).

A short description of the series: small volume in vitro release in 50 ml 0.1N HCl. The format is physicochemical. The conditions noted are these: 37° C., 150 rpm. The protocol: The formulations were tested for their small volume in vitro release characteristics in 50 ml 0.1N HCl at 37° C. and 150 rpm using the following procedure: III. Instrumentation (or Equivalent) • a. Automated Dissolution System comprising of: • Hanson SR8 Plus Test Station • Hanson Auto Plus Maximiser System Controller • Hanson Auto Plus MultiFill Fraction Collector • b. […] Procedure • Place one weighed capsule in each vessel containing 0.1N HCl and immediately operate the apparatus for 30 min. • Unless otherwise specified, 3 ml samples are withdrawn from each vessel and immediately filtered through PTFE membranes at 15 and 30 min. IV.
The small volume was chosen as a model of the conditions in a fasted stomach.

As to `CC(C)OC(=O)C(C)(C)Oc1ccc(C(=O)c2ccc(Cl)cc2)cc1` [Micronized Fenofibrate], the “dissolution under small volume model condition (in words)” value was “no dissolution at all”.
